According to US12311049B2, “Formulation of ear drops and methods for delivery thereof for treating upper respiratory infections” (priority 2023, dated 2025):

What was measured:
Format in all cases: cell-based
SARS-CoV-2 XBB = test system: SARS-CoV-2 XBB
SARS-CoV-2 BA.1 = test system: SARS-CoV-2 BA.1
SARS-CoV-2 BA.5 = test system: SARS-CoV-2 BA.5
SARS-CoV-2 BA.2 = test system: SARS-CoV-2 BA.2
[1] = test system: original WA1 viral strain of SARS-CoV-2; experiment: in vitro infectivity of SARS-CoV-2 to epithelial cells expressing ACE-2 and TMPRSS-2 (virus-NP protein in culture media); conditions: MOI 0.01
SARS-CoV-2 XBB1.5 = test system: SARS-CoV-2 XBB1.5

hemin
suppression of replication of SARS-CoV-2 XBB (SARS-CoV-2 XBB): significantly suppressed replication | dose response of inhibition of SARS-CoV-2 BA.1 (virus-NP protein levels) (SARS-CoV-2 BA.1): dose-dependent inhibition | protection of cells against SARS-CoV-2 BA.1 infection (SARS-CoV-2 BA.1): protected cells | suppression of replication of SARS-CoV-2 BA.5 (SARS-CoV-2 BA.5): significantly suppressed replication | suppression of replication of SARS-CoV-2 BA.2 (SARS-CoV-2 BA.2): significantly suppressed replication | suppression of SARS-CoV-2 infection, original WA1 viral strain [1]: markedly suppressed | suppression of replication of SARS-CoV-2 XBB1.5 (SARS-CoV-2 XBB1.5): significantly suppressed replication
